Reference: patent US20260226493A1, “HERBICIDE RESISTANT PLANTS” (SYNGENTA CROP PROTECTION AG, priority 2023, published 2026)

How the values were obtained:
[1] = system: Selaginella moellendorffii BioDA; test: BioDA enzyme activity with DMSO or herbicide in vitro; assay type: biochemical; conditions: Selaginella moellendorcffii BioDAΔMTP
Text: (§1) A pet-24 plasmid containing a DNA sequence encoding each identified variant mutant of BIO3-BIO1 derived from Arabidopsis thaliana from example 5 above, as shown in Table 13 below and as shown in full in SEQ ID NOs: 15 to 155, codon-optimised for expression in E. coli, with an N-terminal 6×His-tag and thrombin cleavage site and under control of a T7 promoter, and was synthesised by Twist Bioscience, in a similar manner to SEQ ID NO:311. These plasmids were then expressed in E. coli BL21 (DE3) bioA with 50 μg/mL kanamycin and 25 μg/mL chloramphenicol selection. Overnight cultures grown at 37° C. were used to inoculate 8×500 mL AIM in shake flasks at a ratio of 1:100. Cultures were grown at 37° C., 200 rpm for 3.5 hours and then overnight at 20° C. Cells were harvested by centrifugation for 30 minutes at 10 000 g. Cells were stored at −80° C. until extraction. 30 g of cell pellet from was thawed in 120 mL of IMAC buffer A (20 mM HEPES pH7.5, 25 mM imidazole, 500 mM sodium chloride, 0.15 mM pyridoxal phosphate, 0.5 mM TCEP, 1× complete Protease Inhibitor Tablet (Roche)). The resuspension was passed through a cell disrupter at 18 000 PSI and centrifuged at 50 000 g for 25 minutes at 4° C. The His-tagged BIO3-BIO1 protein was purified from the extract supernatant on an AKTA avant chromatography system (Cytiva) using a HisTrap FF column and eluted in IMAC buffer B ((20 mM HEPES pH7.5, 500 mM imidazole, 500 mM sodium chloride, 0.15 mM pyridoxal phosphate, 0.5 mM TCEP) followed by SEC using a HiLoad 26/60 Superdex200 column in SEC buffer (25 mM HEPES pH7.5, 150 mM sodium chloride, 0.15 mM pyridoxal phosphate, 0.5 mM TCEP). Protein concentration was measured and calculated using the absorbance at 280 nm. Extracts were diluted 1 in 4 and 10 uL was analysed by SDS PAGE.
(§2) To measure BIO3-BIO1 mutant enzyme activity in the presence of herbicide, herbicides were incubated with 20 μL of enzyme mix (100 mM EPPS pH 8.6, 0.1 mM pyridoxal phosphate, 0.1 mg/mL BSA, 50 nM BIO3-BIO1 enzyme) for 10 minutes at 20° C. in a well of a 96-well half-area black plate, followed by the addition of 20 μL of substrate mix (final concentration of 100 mM EPPS pH 8.6, 0.1 mM pyridoxal phosphate, 0.1 mg/mL BSA, 100 μM spermidine, 20 μM KAPA, 100 mM NaCO3) and further incubation for 75 minutes at 20° C. The reaction was terminated by the addition of 50 μL of derivatisation mix (final concentration of 250 mM borate NaOH pH 9.4, 3.6 mM o-phthalaldehyde, 7 mM β-mercaptoethanol, 17% (v/v) ethanol, 3.6% (v/v) methanol). The fluorescent product produced by the reaction of DAPA with o-phthalaldehyde and 7 mM β-mercaptoethanol was measured at 470 nm after excitation at 410 nm. The percentage inhibition was calculated as the activity in the presence of one of three concentrations of each herbicide compound A to M (note that the compounds labelled as A to M are identified hereinabove in the relevant section of the description) as a percentage of the activity in DMSO (Table 12 and 13). The percentage activity versus WT was also calculated and is shown in Table 13 and 14 (NT indicates mutation not tested in table 13, note that these mutations are tested at different compound concentrations for compounds L, M and C, and the results are shown in table 14).
(§3) The activity of various wild-type BioDA and variant enzymes was also tested when treated with DMSO or herbicide in vitro.
(§4) Protein of Schizosaccharomyces japonicus BioDA (SEQ ID NO:13), Nannochloropsis gaditana BioDA (SEQ ID NO:3), Selaginella moellendorffii BioDA (SEQ ID NO:319), Quercus robur BioDA (SEQ ID NOA11), Ostreococcus tauri BioDA (SEQ ID NO:9), and the variants of Ostreococcus tauri BioDA A374D, F332A and P407A (SEQ ID Nos:321-323) was prepared using the method in Example 6. BioDA enzyme activity in the presence of herbicide or DMSO in vitro for each of the proteins was assayed according to the enzyme assay method above. The results are shown in Table 26 provided below in the “TABLES” section.

[2] = system: Nannochloropsis gaditana BioDA; test: as above; assay type: biochemical
Text: as §1, §2, §3, §4

Ostreococcus tauri BioDA = test: as above; assay type: biochemical; conditions: Ostreococcus tauri BioDAΔMTP
Text: as §1, §2, §3, §4

[3] = system: Schizosaccharomyces japonicus BioDA; test: as above; assay type: biochemical
Text: as §1, §2, §3, §4

Quercus robur BioDA = test: as above; assay type: biochemical; conditions: Quercus robur BioDAΔMTP
Text: as §1, §2, §3, §4

Chroococcidiopsis BioA = test: BioA enzyme activity with DMSO or herbicide in vitro; assay type: biochemical, Chroococcidiopsis sp. CCMEE 29; conditions: spermidine in substrate mix
Text: as §1, §2
Protein of Escherichia coli BioA (SEQ ID NO:159), Pantoea ananatis BioA (SEQ ID NO:167), Streptomyces viridochromogenes BioA (SEQ ID NO:170), Cryptosporidium andersoni BioA (SEQ ID NO:160), Stenotrophomonas maltophilia BioA (SEQ ID NO:171), Chroococcidiopsis BioA (SEQ ID NO:184), Pedobacter hartonius BioA (SEQ ID NO:181), Chitinophaga filiformis BioA (SEQ ID NO:180), Tenacibaculum adriaticum BioA (SEQ ID NO:185) and Bacillus subtilis BioA (SEQ ID NO:166) was prepared using the method in Example 6. BioA enzyme activity in the presence of herbicide or DMSO in vitro for each of the proteins was assayed according to the enzyme assay method in Example 6, except in some reactions spermidine was replaced with 2 mM S-Adenosyl methionine.

CCOC(=O)c1nn(-c2ccc3c(c2)OC(F)(F)C(F)(F)O3)c2cccc(C(C)=O)c2c1=O [Compound A, ethyl 5-acetyl-4-oxo-1-(2,2,3,3-tetrafluoro-1,4-benzodioxin-6-yl)cinnoline-3-carboxylate]
% Inhibition relative to DMSO treatment ([1]; 25 μM): 25% | % Inhibition relative to DMSO treatment ([2]; 25 μM): 5% | % Inhibition relative to DMSO treatment (Ostreococcus tauri BioDA; 25 μM): 0% | % Inhibition relative to DMSO treatment ([3]; 25 μM): 2% | % Inhibition relative to DMSO treatment (Quercus robur BioDA; 25 μM): 72% | % Inhibition relative to DMSO treatment (Chroococcidiopsis BioA; 25 μM): 0%

CC(O)C(N)CCCCC(=O)O.Cl (stereo not drawn) [Compound B, [5-carboxy-1-(1-hydroxyethyl)pentyl]ammonium chloride]
% Inhibition relative to DMSO treatment ([1]; 200 μM): 64% | % Inhibition relative to DMSO treatment ([2]; 200 μM): 92% | % Inhibition relative to DMSO treatment (Ostreococcus tauri BioDA; 200 μM): 62% | % Inhibition relative to DMSO treatment ([3]; 200 μM): 70% | % Inhibition relative to DMSO treatment (Quercus robur BioDA; 200 μM): 93% | % Inhibition relative to DMSO treatment (Chroococcidiopsis BioA; 200 μM): 99%

CCn1c(C)c(-c2ccc(F)cc2F)c(=O)c(C(=O)O)c1-c1ccc(Cl)c(Cl)c1 [Compound C, 2-(3,4-dichlorophenyl)-5-(2,4-difluorophenyl)-1-ethyl-6-methyl-4-oxo-pyridine-3-carboxylic acid]
% Inhibition relative to DMSO treatment ([1]; 0.5 μM): 9% | % Inhibition relative to DMSO treatment ([2]; 0.5 μM): 8% | % Inhibition relative to DMSO treatment (Ostreococcus tauri BioDA; 0.5 μM): 0% | % Inhibition relative to DMSO treatment ([3]; 0.5 μM): 17% | % Inhibition relative to DMSO treatment (Quercus robur BioDA; 0.5 μM): 32% | % Inhibition relative to DMSO treatment (Chroococcidiopsis BioA; 0.5 μM): 2%

CCn1c(C)c(-c2cc(OC(F)(F)F)ccc2Cl)c(=O)c(C(=O)O)c1-c1ccc(Cl)c(Cl)c1 [Compound D, 5-[2-chloro-5-(trifluoromethoxy)phenyl]-2-(3,4-dichlorophenyl)-1-ethyl-6-methyl-4-oxo-pyridine-3-carboxylic acid]
% Inhibition relative to DMSO treatment ([1]; 0.5 μM): 75% | % Inhibition relative to DMSO treatment ([2]; 0.5 μM): 14% | % Inhibition relative to DMSO treatment (Ostreococcus tauri BioDA; 0.5 μM): 0% | % Inhibition relative to DMSO treatment (Ostreococcus tauri BioDA; 5 μM): 36% | % Inhibition relative to DMSO treatment ([3]; 0.5 μM): 87% | % Inhibition relative to DMSO treatment (Quercus robur BioDA; 0.5 μM): 88% | % Inhibition relative to DMSO treatment (Chroococcidiopsis BioA; 0.5 μM): 0%

C[C@@H](N)COc1cccc(C(=O)O)n1.Cl.Cl [Compound E, [(1R)-2-(6-carboxypyridin-1-ium-2-yl)oxy-1-methyl-ethyl]ammonium dichloride]
% Inhibition relative to DMSO treatment ([1]; 200 μM): 69% | % Inhibition relative to DMSO treatment ([2]; 200 μM): 66% | % Inhibition relative to DMSO treatment (Ostreococcus tauri BioDA; 200 μM): 53% | % Inhibition relative to DMSO treatment ([3]; 200 μM): 28% | % Inhibition relative to DMSO treatment (Quercus robur BioDA; 200 μM): 96% | % Inhibition relative to DMSO treatment (Chroococcidiopsis BioA; 200 μM): 26%

CCn1c(Cn2ccc(C(F)(F)F)n2)cc(=O)c(C(=O)O)c1-c1ccc(Cl)c(Cl)c1 [Compound L, 2-(3,4-dichlorophenyl)-1-ethyl-4-oxo-6-[[3-(trifluoromethyl)pyrazol-1-yl]methyl]pyridine-3-carboxylic acid]
% Inhibition relative to DMSO treatment ([1]; 0.5 μM): 9% | % Inhibition relative to DMSO treatment ([2]; 0.5 μM): 6% | % Inhibition relative to DMSO treatment (Ostreococcus tauri BioDA; 0.5 μM): 5% | % Inhibition relative to DMSO treatment (Ostreococcus tauri BioDA; 31 μM): 83% | % Inhibition relative to DMSO treatment (Ostreococcus tauri BioDA; 500 μM): 98% | % Inhibition relative to DMSO treatment ([3]; 0.5 μM): 0% | % Inhibition relative to DMSO treatment ([3]; 31 μM): 55% | % Inhibition relative to DMSO treatment ([3]; 500 μM): 94% | % Inhibition relative to DMSO treatment (Quercus robur BioDA; 0.5 μM): 83% | % Inhibition relative to DMSO treatment (Chroococcidiopsis BioA; 0.5 μM): 15%

CCn1c(-c2ccc(Cl)c(Cl)c2)c(C(=O)O)c(=O)c2cc(F)ccc21 [Compound M, 2-(3,4-dichlorophenyl)-1-ethyl-6-fluoro-4-oxo-quinoline-3-carboxylic acid]
% Inhibition relative to DMSO treatment ([1]; 0.5 μM): 0% | % Inhibition relative to DMSO treatment ([2]; 0.5 μM): 3% | % Inhibition relative to DMSO treatment (Ostreococcus tauri BioDA; 0.5 μM): 0% | % Inhibition relative to DMSO treatment (Ostreococcus tauri BioDA; 31 μM): 45% | % Inhibition relative to DMSO treatment (Ostreococcus tauri BioDA; 500 μM): 92% | % Inhibition relative to DMSO treatment ([3]; 0.5 μM): 15% | % Inhibition relative to DMSO treatment ([3]; 31 μM): 95% | % Inhibition relative to DMSO treatment ([3]; 500 μM): 99% | % Inhibition relative to DMSO treatment (Quercus robur BioDA; 0.5 μM): 22% | % Inhibition relative to DMSO treatment (Chroococcidiopsis BioA; 0.5 μM): 10%
